Laboratory results taken from PubChem BioAssay AID328 (DTP/NCI, 2004).
“And” between values parts separate entries of the source, which are not always exact repeats. Equal values may be shown once. Inconclusive results and toxic doses are left out. The calls were made as follows: active = survival T/C of 150% or more; inactive = T/C below 125% in these data. Residues, ends and D or L forms follow the SMILES beside them. *: point of attachment. Cbz = O=C(OCc1ccccc1)*; NHNH2 = NN*

System: BDF1 mice, P388 leukemia ip, median survival T/C
Test: NCI In Vivo Anticancer Drug Screen. Data for tumor model P388 Leukemia (intraperitoneal) in B6D2F1 (BDF1) mice
Conditions: endpoint: median survival time, higher = longer survival
Procedure: The antitumor activity of compounds was measured in mice bearing transplantable tumors. Survival or tumor size were measured and the results are expressed as the measurement made in the treated group (T) divided by the measurement made in the vehicle treated control group (C). The tumor model used in this assay is P388 Leukemia (intraperitoneal) in B6D2F1 (BDF1) mice

[1] = dose: 45.0 mg/kg/injection, schedule: Q04DX003 (ip), vehicle: Klucel (hydroxypropylcellulose) (HPC)
[2] = dose: 100.0 mg/kg/injection, schedule: Q01DX009 (ip), vehicle: saline with Tween-80
[3] = dose: 150.0 mg/kg/injection, schedule: Q04DX003 (ip), vehicle: saline with Tween-80
[4] = dose: 200.0 mg/kg/injection, schedule: Q01DX009 (ip), vehicle: saline with Tween-80
[5] = dose: 44.0 mg/kg/injection, schedule: Q04DX003 (ip), vehicle: saline with Tween-80
[6] = dose: 66.0 mg/kg/injection, schedule: Q04DX003 (ip), vehicle: saline with Tween-80
[7] = dose: 100.0 mg/kg/injection, schedule: Q04DX003 (ip), vehicle: saline with Tween-80
[8] = dose: 400.0 mg/kg/injection, schedule: Q01DX009 (ip), vehicle: saline with Tween-80
[9] = dose: 50.0 mg/kg/injection, schedule: Q01DX009 (ip), vehicle: saline with Tween-80
[10] = dose: 50.0 mg/kg/injection, schedule: Q04DX003 (ip), vehicle: saline with Tween-80
[11] = dose: 200.0 mg/kg/injection, schedule: Q04DX003 (ip), vehicle: saline with Tween-80

Measured: T/C

CC(=O)Nc1ccc(NC(=O)c2ccc([As](O)O)cc2)cc1
inactive: dose: 29.0 mg/kg/injection, schedule: Q04DX003 (ip), vehicle: Klucel (hydroxypropylcellulose) (HPC) 109 % of control | dose: 45.0 mg/kg/injection, schedule: Q01DX009 (ip), vehicle: saline 102 % of control | [1] 113 % of control | dose: 65.0 mg/kg/injection, schedule: Q01DX009 (ip), vehicle: saline 116 % of control
active: dose: 200.0 mg/kg/injection, schedule: Q01DX009 (ip), vehicle: Klucel (hydroxypropylcellulose) (HPC) 170 % of control | dose: 265.0 mg/kg/injection, schedule: Q01DX009 (ip), vehicle: Klucel (hydroxypropylcellulose) (HPC) 159 % of control

CCOC(=O)S(=O)(=O)c1ccc(C)cc1
inactive: dose: 6.25 mg/kg/injection, schedule: Q01DX009 (ip), vehicle: saline 90 % of control | dose: 12.5 mg/kg/injection, schedule: Q01DX009 (ip), vehicle: saline 90 % of control | dose: 25.0 mg/kg/injection, schedule: Q01DX009 (ip), vehicle: saline 115 % of control

O=c1[nH]c(Cl)ncc1F
inactive: dose: 67.0 mg/kg/injection, schedule: Q01DX009 (ip), vehicle: saline with Tween-80 100 % of control | dose: 75.0 mg/kg/injection, schedule: Q04DX003 (ip), vehicle: saline with Tween-80 113 % of control | [2] 103 % of control | dose: 150.0 mg/kg/injection, schedule: Q01DX009 (ip), vehicle: saline with Tween-80 107 % of control | [3] 100 % of control | dose: 225.0 mg/kg/injection, schedule: Q01DX009 (ip), vehicle: saline with Tween-80 111 % of control | dose: 300.0 mg/kg/injection, schedule: Q04DX003 (ip), vehicle: saline with Tween-80 86 % of control

CC(=O)[C@H]1CC[C@H]2[C@@H]3CCC4=CC(=O)[C@H](C)C[C@]4(C)[C@H]3C(=O)C[C@]12C
inactive: [2] 90 % of control | [4] 95 % of control

COc1ccc(/C=C/C(=O)c2ccc3c(c2)OCO3)cc1OC
inactive: dose: 44.0 mg/kg/injection, schedule: Q01DX009 (ip), vehicle: saline with Tween-80 109 % of control | [5] 109 % of control | dose: 66.0 mg/kg/injection, schedule: Q01DX009 (ip), vehicle: saline with Tween-80 118 % of control | [6] 109 % of control | dose: 88.0 mg/kg/injection, schedule: Q01DX009 (ip), vehicle: saline with Tween-80 123 % of control | [7] 109 % of control | [3] 109 % of control
active: [4] 157 % of control | [8] 194 % of control

c1ccc2c(c1)ccc1c[n+]3ccccc3cc12
inactive: dose: 0.25 mg/kg/injection, schedule: Q01DX009 (ip), vehicle: saline 90 % of control | dose: 0.5 mg/kg/injection, schedule: Q01DX009 (ip), vehicle: saline 90 % of control | dose: 1.0 mg/kg/injection, schedule: Q01DX009 (ip), vehicle: saline 90 % of control | dose: 2.0 mg/kg/injection, schedule: Q01DX009 (ip), vehicle: saline 90 % of control

Cc1ccc(Nc2n[nH]c(=S)s2)cc1C
inactive: [2] 104 % of control | [4] 109 % of control | [8] 109 % of control

c1ccc2c(Nc3ccc(C4=NCCN4)cc3)nnc(Nc3ccc(C4=NCCN4)cc3)c2c1
inactive: dose: 19.0 mg/kg/injection, schedule: Q04DX003 (ip), vehicle: saline with Tween-80 119 % of control | dose: 29.0 mg/kg/injection, schedule: Q04DX003 (ip), vehicle: saline with Tween-80 115 % of control | [5] 119 % of control
active: [6] 154 % of control and 168 % of control | [7] 163 % of control | [3] 195 % of control

N[C@H](Cc1c[nH]c2ccccc12)C(=O)O
inactive: dose: 100.0 mg/kg/injection, schedule: Q01DX010 (ip), vehicle: saline 92 % of control | dose: 200.0 mg/kg/injection, schedule: Q01DX010 (ip), vehicle: saline 96 % of control | dose: 400.0 mg/kg/injection, schedule: Q01DX010 (ip), vehicle: saline 96 % of control | dose: 800.0 mg/kg/injection, schedule: Q01DX010 (ip), vehicle: saline 110 % of control

Nc1nc2c(ccc3ccccc32)s1
inactive: dose: 25.0 mg/kg/injection, schedule: Q01DX009 (ip), vehicle: saline with Tween-80 117 % of control | [9] 117 % of control | [2] 122 % of control

O=C1OC2CCC3C1C3C2Br (stereo unspecified)
inactive: dose: 2.32 mg/kg/injection, schedule: Q04DX003 (ip), vehicle: Klucel (hydroxypropylcellulose) (HPC) 95 % of control | dose: 4.65 mg/kg/injection, schedule: Q04DX003 (ip), vehicle: Klucel (hydroxypropylcellulose) (HPC) 95 % of control | dose: 9.3 mg/kg/injection, schedule: Q04DX003 (ip), vehicle: Klucel (hydroxypropylcellulose) (HPC) 95 % of control | dose: 13.0 mg/kg/injection, schedule: Q04DX003 (ip), vehicle: Klucel (hydroxypropylcellulose) (HPC) 115 % of control | dose: 21.0 mg/kg/injection, schedule: Q04DX003 (ip), vehicle: Klucel (hydroxypropylcellulose) (HPC) 115 % of control | dose: 30.0 mg/kg/injection, schedule: Q04DX003 (ip), vehicle: Klucel (hydroxypropylcellulose) (HPC) 120 % of control | [1] 109 % of control | dose: 70.0 mg/kg/injection, schedule: Q04DX003 (ip), vehicle: Klucel (hydroxypropylcellulose) (HPC) 95 % of control

CC(NC1=NCCO1)c1cccc2ccccc12 (stereo unspecified)
inactive: dose: 100.0 mg/kg/injection, schedule: Q01DX001 (ip), vehicle: saline with Tween-80 91 % of control | dose: 200.0 mg/kg/injection, schedule: Q01DX001 (ip), vehicle: saline with Tween-80 91 % of control | dose: 400.0 mg/kg/injection, schedule: Q01DX001 (ip), vehicle: saline with Tween-80 91 % of control

O=c1[nH]nc(-c2ccccc2)nc1/C(=N\Nc1ccc([N+](=O)[O-])cc1)c1ccccc1
inactive: [9] 89 % of control | [2] 89 % of control | [4] 98 % of control

O=c1[nH]cnc2c1nc1n2CCC1
inactive: [10] 90 % of control | [7] 90 % of control | [11] 113 % of control

C=C(Br)COCC
inactive: dose: 5.78 mg/kg/injection, schedule: Q01DX001 (ip), vehicle: saline 95 % of control | dose: 11.56 mg/kg/injection, schedule: Q01DX001 (ip), vehicle: saline 113 % of control | dose: 13.75 mg/kg/injection, schedule: Q04DX003 (ip), vehicle: saline 95 % of control | dose: 23.12 mg/kg/injection, schedule: Q01DX001 (ip), vehicle: saline 104 % of control | dose: 27.5 mg/kg/injection, schedule: Q04DX003 (ip), vehicle: saline 109 % of control | dose: 35.0 mg/kg/injection, schedule: Q01DX009 (ip), vehicle: saline 100 % of control | dose: 46.25 mg/kg/injection, schedule: Q01DX001 (ip), vehicle: saline 100 % of control | dose: 55.0 mg/kg/injection, schedule: Q01DX009 (ip), vehicle: saline 109 % of control | dose: 55.0 mg/kg/injection, schedule: Q04DX003 (ip), vehicle: saline 90 % of control | dose: 80.0 mg/kg/injection, schedule: Q04DX003 (ip), vehicle: saline 110 % of control | dose: 92.5 mg/kg/injection, schedule: Q01DX001 (ip), vehicle: saline 113 % of control | dose: 125.0 mg/kg/injection, schedule: Q04DX003 (ip), vehicle: saline 100 % of control | dose: 185.0 mg/kg/injection, schedule: Q04DX003 (ip), vehicle: saline 100 % of control

OC12CCCCC1Cc1cc3c(cc1O2)CC1CCCCC1(O)O3 (stereo unspecified)
inactive: [9] 100 % of control | [2] 93 % of control | [4] 96 % of control

CNc1cccnc1/C=N/NC(N)=S
active: [9] 194 % of control | [2] 181 % of control

CSc1cccc(NC(=O)Oc2ccc([N+](=O)[O-])cc2Cl)c1
inactive: dose: 12.5 mg/kg/injection, schedule: Q01DX009 (ip), vehicle: DMSO 93 % of control | dose: 50.0 mg/kg/injection, schedule: Q01DX009 (ip), vehicle: DMSO 89 % of control

O=C(O)CCS(=O)(=O)CCC(=O)O
inactive: [9] 100 % of control | [2] 100 % of control | [4] 100 % of control

CC(C)C(NC(=O)C1CCCN1C(=O)OCc1ccccc1)C(=O)NN (stereo not drawn) (Cbz-Pro-Val-NHNH2; configuration not given here)
inactive: [10] 100 % of control | [7] 100 % of control | [11] 91 % of control | dose: 400.0 mg/kg/injection, schedule: Q04DX003 (ip), vehicle: saline with Tween-80 100 % of control
